This experiment concerns the target T1, hSTING (Homo sapiens, UniProt Q86WV6, G230A/H232R/R293Q/R71H).
T1 construct: host or cells: THP1-Dual KO-IFNAR2 cells
Put plainly: STING reporter assay (luciferase) in THP1-Dual KO-IFNAR2 cells stimulated with 2′3′cGAMP. The format is cell-based. To be noted: 2′3′cGAMP 15 μM, 24 h. How it is done: STING pathway activation by the compounds described herein was measured using THP1-Dual™ cells (KO-IFNAR2).
THP1-Dual™ KO-IFNAR2 Cells (obtained from invivogen) were maintained in RPMI, 10% FCS, 5 ml P/S, 2 mM L-glut, 10 mM Hepes, and 1 mM sodium pyruvate. Compounds were spotted in empty 384 well tissue culture plates (Greiner 781182) by Echo for a final concentration of 0.0017-100 μM. Cells were plated into the TC plates at […], 2×10E6 cells/mL. For activation with STING ligand, 2′3′cGAMP (MW 718.38, obtained from Invivogen), was prepared in Optimem media.
The following solutions were prepared for each 1×384 plate: • Solution A: 2 mL Optimem with one of the following stimuli: • […] • Solution B: 2 mL Optimem with 60 μL Lipofectamine 2000->Incubate 5 min at RT
2 mL of solution A and 2 ml Solution B was mixed and incubated for 20 min at room temperature (RT). 20 uL of transfection solution (A+B) was added on top of the plated cells, with a final 2′3′cGAMP concentration of 15 μM. The plates were then centrifuged immediately at 340 g for 1 minute, after which they were incubated at 37° C., 5% CO2, >98% humidity for 24 h. Luciferase reporter activity was then measured. EC50 values were calculated by using standard methods known in the art.
Luciferase reporter assay: 10 μL of supernatant from the assay was transferred to white 384-plate with flat bottom and squared wells. One pouch of QUANTI-Luc™ Plus was dissolved in 25 mL of water. 100 μL of QLC Stabilizer per 25 mL of QUANTI-Luc™ Plus solution was added. 50 μL of QUANTI-Luc™ Plus/QLC solution per well was then added. Luminescence was measured on a Platereader (e.g., Spectramax I3X (Molecular Devices GF3637001)).
Luciferase reporter activity was then measured. EC50 values were calculated by using standard methods known in the art.
In general terms: Reporter assays use an easily measured gene product as a stand-in for the process of interest.

Structures are written as SMILES.

T1 sequence (Q86WV6 whole entry R71H/G230A/H232R/R293Q): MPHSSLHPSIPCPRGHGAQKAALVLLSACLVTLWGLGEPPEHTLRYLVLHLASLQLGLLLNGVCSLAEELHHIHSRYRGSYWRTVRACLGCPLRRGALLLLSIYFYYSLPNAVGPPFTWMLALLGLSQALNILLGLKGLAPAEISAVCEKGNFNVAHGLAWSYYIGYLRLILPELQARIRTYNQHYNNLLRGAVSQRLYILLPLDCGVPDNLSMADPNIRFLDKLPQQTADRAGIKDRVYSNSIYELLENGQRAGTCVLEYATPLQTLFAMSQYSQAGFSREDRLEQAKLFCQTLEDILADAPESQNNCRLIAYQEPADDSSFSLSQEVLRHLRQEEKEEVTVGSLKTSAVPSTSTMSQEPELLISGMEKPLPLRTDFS

Broadly, the EC50 is the concentration giving half of the maximal effect. Read a low EC50 as an effect from little substance. For the molecule `O=C(Nc1ccc(C2CCC(O)CC2)nc1)Nc1c[nH]c2ncc(F)cc12` (stereo not drawn) [Compound 114, 1-(5-fluoro-1H-pyrrolo[2,3-b]pyridin-3-yl)-3-(6-(4-hydroxycyclohexyl)pyridin-3-yl)urea], the EC50 (numeric bounds) was more than 100000 nM.
Same read-out and setting: then `O=C(Nc1cnn(CC2CCC(F)(F)CC2)c1)Nc1c[nH]c2cccnc12` [Compound 206, 1-(1-((4,4-difluorocyclohexyl)methyl)-1H-pyrazol-4-yl)-3-(1H-pyrrolo[3,2-b]pyridin-3-yl)urea], with more than 30000 nM; and `O=C(Nc1ccc(C2CCC(F)(F)CC2)nc1)Nc1cn(C2CCCNC2)c2ncc(F)cc12` (stereo not drawn) [Compound 123, 1-(6-(4,4-difluorocyclohexyl)pyridin-3-yl)-3-(5-fluoro-1-(piperidin-3-yl)-1H-pyrrolo[2,3-b]pyridin-3-yl)urea], with more than 30000 nM.
For `O=C(Nc1cnc(N2CCC3(CCCCO3)CC2)c(Cl)c1)Nc1c[nH]c2cccnc12` [Compound 215, 1-(5-chloro-6-(1-oxa-9-azaspiro[5.5]undecan-9-yl)pyridin-3-yl)-3-(1H-pyrrolo[3,2-b]pyridin-3-yl)urea], the EC50 (class symbols) was in the range of 1000 to 5000 nM.
As to `O=C(Nc1cnc(N2CCC(F)(F)CC2)nc1)Nc1c[nH]c2ncc(F)cc12` [Compound 190, 1-(2-(4,4-difluoropiperidin-1-yl)pyrimidin-5-yl)-3-(5-fluoro-1H-pyrrolo[2,3-b]pyridin-3-yl)urea], the EC50 (class symbols) lay within 200 to 1000 nM.
Same read-out and setting: the value for `CC(O)c1cc(NC(=O)Nc2c[nH]c3ncc(F)cc23)cnc1N1CCC(F)(F)CC1` (stereo not drawn) [Compound 138, 1-(6-(4,4-difluoropiperidin-1-yl)-5-(1-hydroxyethyl)pyridin-3-yl)-3-(5-fluoro-1H-pyrrolo[2,3-b]pyridin-3-yl)urea] was 1000 to 5000 nM.
The same measure, in the same setting: the value for `COc1ccc2[nH]cc(NC(=O)Nc3ccc(C4CCC(F)(F)CC4)c(C#N)c3)c2n1` [Compound 150, 1-(3-cyano-4-(4,4-difluorocyclohexyl)phenyl)-3-(5-methoxy-1H-pyrrolo[3,2-b]pyridin-3-yl)urea] was 200 to 1000 nM; that for `CC1(C)CN(c2ncc(NC(=O)Nc3c[nH]c4cccnc34)cc2Cl)CCO1` [Compound 241, 1-(5-chloro-6-(2,2-dimethylmorpholino)pyridin-3-yl)-3-(1H-pyrrolo[3,2-b]pyridin-3-yl)urea] was 5000 to 100000 nM.
The molecule `COc1ccc2[nH]cc(NC(=O)Nc3cnc(N4CCC(F)(F)CC4)c(Cl)c3)c2n1` [Compound 141, 1-(5-chloro-6-(4,4-difluoropiperidin-1-yl)pyridin-3-yl)-3-(5-methoxy-1H-pyrrolo[3,2-b]pyridin-3-yl)urea] had an EC50 (class symbols) of 200 to 1000 nM.
Where the note is “class symbols”, `Cc1cc(NC(=O)Nc2c[nH]c3ncc(F)cc23)cnc1N1CCC2(CC1)CC2` [Compound 192, 1-(5-fluoro-1H-pyrrolo[2,3-b]pyridin-3-yl)-3-(5-methyl-6-(6-azaspiro[2.5]octan-6-yl)pyridin-3-yl)urea] showed an EC50 of 40 to 200 nM.
Still for that read-out and setting: the value for `Cc1cc(NC(=O)Nc2c[nH]c3cccnc23)cnc1C1CCC(F)(F)CC1` [Compound 136, 1-(6-(4,4-difluorocyclohexyl)-5-methylpyridin-3-yl)-3-(1H-pyrrolo[3,2-b]pyridin-3-yl)urea] was 5000 to 100000 nM.
As for `O=C(Nc1cnc(N2CCC(F)(F)CC2)c(Cl)c1)Nc1c[nH]c2ccc(OCC(F)(F)F)nc12` [Compound 208, 1-(5-chloro-6-(4,4-difluoropiperidin-1-yl)pyridin-3-yl)-3-(5-(2,2,2-trifluoroethoxy)-1H-pyrrolo[3,2-b]pyridin-3-yl)urea], the EC50 (class symbols) was 200 to 1000 nM.
In the case of `Cc1cc(NC(=O)Nc2c[nH]c3c(F)cncc23)cnc1N1CCC(F)(F)CC1` [Compound 172, 1-(6-(4,4-difluoropiperidin-1-yl)-5-methylpyridin-3-yl)-3-(7-fluoro-1H-pyrrolo[3,2-c]pyridin-3-yl)urea], the 50% effective concentration (EC50) (class symbols) lay within 1000 to 5000 nM.
In the case of `O=C(Nc1cnc(N2CCC(F)(F)CC2)cc1Cl)Nc1c[nH]c2ncc(F)cc12` [Compound 183, 1-(4-chloro-6-(4,4-difluoropiperidin-1-yl)pyridin-3-yl)-3-(5-fluoro-1H-pyrrolo[2,3-b]pyridin-3-yl)urea], for the setting “numeric bounds”, the EC50 is more than 30000 nM.
`COc1ccc2[nH]cc(NC(=O)Nc3cnn(C4CCC(F)(F)CC4)c3)c2n1` [Compound 209, 1-(1-(4,4-difluorocyclohexyl)-1H-pyrazol-4-yl)-3-(5-methoxy-1H-pyrrolo[3,2-b]pyridin-3-yl)urea] gave an EC50 (numeric bounds) of more than 30000 nM.
The same measure, in the same setting: then `Cc1cc(NC(=O)Nc2c[nH]c3ncc(F)cc23)cnc1N1CC2(CC(O)C2)C1` [Compound 156, 1-(5-fluoro-1H-pyrrolo[2,3-b]pyridin-3-yl)-3-(6-(6-hydroxy-2-azaspiro[3.3]heptan-2-yl)-5-methylpyridin-3-yl)urea], with more than 30000 nM.
Molecule `COCCOc1ccc2[nH]cc(NC(=O)Nc3cnc(C4CCC(F)(F)CC4)c(Cl)c3)c2n1` [Compound 211, 1-(5-chloro-6-(4,4-difluorocyclohexyl)pyridin-3-yl)-3-(5-(2-methoxyethoxy)-1H-pyrrolo[3,2-b]pyridin-3-yl)urea] gave an EC50 (class symbols) of 200 to 1000 nM.
Regarding `COc1cnc2[nH]cc(NC(=O)Nc3cnc(N4CCC(F)(F)CC4)c(Cl)c3)c2c1` [Compound 181, 1-(5-chloro-6-(4,4-difluoropiperidin-1-yl)pyridin-3-yl)-3-(5-methoxy-1H-pyrrolo[2,3-b]pyridin-3-yl)urea], the EC50 (class symbols) fell in the range of 200 to 1000 nM.
Regarding `O=C(Nc1cnc(N2CC3(CN(CC(F)(F)F)C3)C2)c(Cl)c1)Nc1c[nH]c2cccnc12` [Compound 224, 1-(5-chloro-6-(6-(2,2,2-trifluoroethyl)-2,6-diazaspiro[3.3]heptan-2-yl)pyridin-3-yl)-3-(1H-pyrrolo[3,2-b]pyridin-3-yl)urea], where the note is “class symbols”, the EC50 is 5000 to 100000 nM.
Turning to `O=C(Nc1ccc(C2CCCC2)nc1)Nc1c[nH]c2ncc(F)cc12` [Compound 109, 1-(6-cyclopentylpyridin-3-yl)-3-(5-fluoro-1H-pyrrolo[2,3-b]pyridin-3-yl)urea], the EC50 (class symbols) lay within 200 to 1000 nM.
For the setting “class symbols”, `O=C(Nc1cnc(C2CC(F)(F)C2)c(Cl)c1)Nc1c[nH]c2cccnc12` [Compound 143, 1-(5-chloro-6-(3,3-difluorocyclobutyl)pyridin-3-yl)-3-(1H-pyrrolo[3,2-b]pyridin-3-yl)urea] yielded an EC50 of 200 to 1000 nM.
`O=C(Nc1cnc(C2CCN(CC(F)(F)F)C2)c(Cl)c1)Nc1c[nH]c2cccnc12` (stereo not drawn) [Compound 216, 1-(5-chloro-6-(1-(2,2,2-trifluoroethyl)pyrrolidin-3-yl)pyridin-3-yl)-3-(1H-pyrrolo[3,2-b]pyridin-3-yl)urea] gave an EC50 (class symbols) of 1000 to 5000 nM.
In the case of `O=C(Nc1ncc(N2CCC(F)(F)CC2)cc1Cl)Nc1c[nH]c2ncc(F)cc12` [Compound 178, 1-(3-chloro-5-(4,4-difluoropiperidin-1-yl)pyridin-2-yl)-3-(5-fluoro-1H-pyrrolo[2,3-b]pyridin-3-yl)urea], the EC50 (numeric bounds) was more than 30000 nM.
Under “class symbols”, `COc1cnc2[nH]cc(NC(=O)Nc3cnc(N4CCC(F)(F)CC4)c(C)c3)c2c1` [Compound 168, 1-(6-(4,4-difluoropiperidin-1-yl)-5-methylpyridin-3-yl)-3-(5-methoxy-1H-pyrrolo[2,3-b]pyridin-3-yl)urea] yielded an EC50 of 200 to 1000 nM.
For the molecule `O=C(Nc1ccc(C2CCC(F)(F)CC2)nc1)Nc1cn(C2CCNCC2)c2ncc(F)cc12` [Compound 128, 1-(6-(4,4-difluorocyclohexyl)pyridin-3-yl)-3-(5-fluoro-1-(piperidin-4-yl)-1H-pyrrolo[2,3-b]pyridin-3-yl)urea], the EC50 (numeric bounds) is more than 30000 nM.
`COc1ccc2[nH]cc(NC(=O)Nc3cnc(C4CC(F)(F)C4)c(Cl)c3)c2n1` [Compound 243, 1-(5-chloro-6-(3,3-difluorocyclobutyl)pyridin-3-yl)-3-(5-methoxy-1H-pyrrolo[3,2-b]pyridin-3-yl)urea] registered an EC50 (class symbols) of 200 to 1000 nM.
The molecule `O=C(Nc1cnc(C2CCC(F)(F)CC2)c(Cl)c1)Nc1c[nH]c2cccnc12` [Compound 142, 1-(5-chloro-6-(4,4-difluorocyclohexyl)pyridin-3-yl)-3-(1H-pyrrolo[3,2-b]pyridin-3-yl)urea] showed an EC50 (class symbols) of 200 to 1000 nM.
Same read-out and setting: the value for `O=C(Nc1cnc(Cl)c(C2CCC(F)(F)CC2)c1)Nc1c[nH]c2cccnc12` [Compound 214, 1-(6-chloro-5-(4,4-difluorocyclohexyl)pyridin-3-yl)-3-(1H-pyrrolo[3,2-b]pyridin-3-yl)urea] was 5000 to 100000 nM; that for `O=C(Nc1ccc(C2CC(F)(F)C2)c(F)c1)Nc1c[nH]c2cccnc12` [Compound 239, 1-(4-(3,3-difluorocyclobutyl)-3-fluorophenyl)-3-(1H-pyrrolo[3,2-b]pyridin-3-yl)urea] was 200 to 1000 nM; that for `O=C(Nc1cc(Cl)c(C2CCC(F)(F)CC2)cn1)Nc1c[nH]c2ncc(F)cc12` [Compound 152, 1-(4-chloro-5-(4,4-difluorocyclohexyl)pyridin-2-yl)-3-(5-fluoro-1H-pyrrolo[2,3-b]pyridin-3-yl)urea] was 40 to 200 nM.

These data come from patent US20230115274A1, “COMPOUNDS AND COMPOSITIONS FOR TREATING CONDITIONS ASSOCIATED WITH STING ACTIVITY” (IFM Due, Inc., priority 2019, published 2023).
